# Measured values from US20230131966A1, “FUNGICIDAL AMIDES” (FMC Corporation, priority 2020, published 2023).
# Assays:
# Type in all cases: in vivo
# Phytophthora infestans = test: whole plant or invertebrate; conditions: 250 ppm; tomato seedlings; 100 = 100% disease control, 0 = no control
# [1] = tested on: Erysiphe graminis f. sp. tritici; test: Test G: wheat powdery mildew control on wheat seedlings; conditions: 250 ppm, 100 = 100% disease control, 0 = no control
# Botrytis cinerea = test: Test E: tomato Botrytis control on tomato seedlings; conditions: 250 ppm, 100 = 100% disease control, 0 = no control
# [2] = tested on: Puccinia recondita f. sp. tritici; test: Test B: wheat leaf rust control on wheat seedlings; conditions: 250 ppm; wheat seedlings; 100 = 100% disease control, 0 = no control
# Zymoseptoria tritici = test: Test C: wheat leaf blotch control on wheat seedlings; conditions: 250 ppm; wheat seedlings; 100 = 100% disease control, 0 = no control
# Plasmopara viticola = test: Test D: grape downy mildew control on grape seedlings; conditions: 250 ppm, 100 = 100% disease control, 0 = no control
# Phakopsora pachyrhizi = test: Test A: Asian soybean rust control on soybean seedlings; conditions: 250 ppm; soybean seedlings; 100 = 100% disease control, 0 = no control
Structure (SMILES),Test F disease control rating (Phytophthora infestans),Test G disease control rating [1],Test E disease control rating (Botrytis cinerea),Test B disease control rating [2],Test C disease control rating (Zymoseptoria tritici),Test D disease control rating (Plasmopara viticola),Test A disease control rating (Phakopsora pachyrhizi)
"COc1ccnc(C(=O)N[C@@H](C)C(=O)OC(C)c2ccccc2Cc2ccc(F)cc2)c1OC(C)=O (single isomer, unassigned) [Compound 11]",0%,0%,0%,19%,13%,30%,0%
"COc1ccnc(C(=O)N[C@@H](C)C(=O)OC(C)c2ccccc2Cc2ccc(F)cc2)c1OC(C)=O (single isomer, unassigned) [Compound 22]",0%,0%,0%,99%,85%,61%,100%
"COc1ccnc(C(=O)N[C@@H](C)C(=O)OC(C)c2ccc(F)cc2Cc2ccccc2)c1O (single isomer, unassigned) [Compound 23]",0%,0%,0%,97%,95%,44%,100%
"COc1ccnc(C(=O)N[C@@H](C)C(=O)OC(C)c2ccc(F)cc2Cc2ccccc2)c1O (single isomer, unassigned) [Compound 24]",0%,0%,0%,68%,5%,61%,97%
"COc1ccnc(C(=O)N[C@@H](C)C(=O)OC(C)c2ccc(F)cc2Cc2ccccc2)c1OC(C)=O (single isomer, unassigned) [Compound 37]",0%,0%,0%,99%,89%,29%,100%
"COc1ccnc(C(=O)N[C@@H](C)C(=O)OC(C)c2ccc(F)cc2Cc2ccccc2)c1OC(C)=O (single isomer, unassigned) [Compound 38]",0%,0%,0%,41%,53%,44%,0%
"COc1ccnc(C(=O)N[C@@H](C)C(=O)OC(C)c2ccccc2Cc2ccc(F)cc2)c1O (single isomer, unassigned) [Compound 39]",0%,0%,57%,100%,87%,16%,100%
"COc1ccnc(C(=O)N[C@@H](C)C(=O)OC(C)c2ccccc2Oc2ccc(F)cc2)c1OC(C)=O (single isomer, unassigned) [Compound 57]",0%,0%,0%,98%,88%,16%,99%
"COc1ccnc(C(=O)N[C@@H](C)C(=O)OC(C)c2ccc(F)cc2Cc2ccc(F)cc2)c1OC(C)=O (single isomer, unassigned) [Compound 58]",0%,0%,0%,99%,86%,27%,98%
"COc1ccnc(C(=O)N[C@@H](C)C(=O)OC(C)c2cccc3ccccc23)c1OC(C)=O (single isomer, unassigned) [Compound 116]",0%,0%,0%,100%,95%,55%,100%
"COc1ccnc(C(=O)N[C@@H](C)C(=O)OC(C)c2ccc(CC3CCCCC3)cc2)c1OC(C)=O (single isomer, unassigned) [Compound 128]",0%,0%,0%,90%,83%,57%,95%
"COc1ccnc(C(=O)N[C@@H](C)C(=O)OC(C)c2ccc(CC3CCCCC3)cc2)c1OC(C)=O (single isomer, unassigned) [Compound 129]",0%,0%,0%,100%,91%,32%,100%
"CCC(OC(=O)[C@H](C)NC(=O)c1nccc(OC)c1OC(C)=O)c1ccc(C2CCCCC2)cc1 (single isomer, unassigned) [Compound 130]",0%,0%,0%,74%,12%,9%,96%
"CCC(OC(=O)[C@H](C)NC(=O)c1nccc(OC)c1OC(C)=O)c1ccc(C2CCCCC2)cc1 (single isomer, unassigned) [Compound 131]",0%,89%,0%,96%,87%,6%,100%
"CCC(OC(=O)[C@H](C)NC(=O)c1nccc(OC)c1OCOC(=O)C(C)C)c1ccc(C2CCCCC2)cc1 (single isomer, unassigned) [Compound 132]",0%,0%,0%,68%,30%,29%,75%
"CCC(OC(=O)[C@H](C)NC(=O)c1nccc(OC)c1OCOC(=O)C(C)C)c1ccc(C2CCCCC2)cc1 (single isomer, unassigned) [Compound 133]",0%,0%,0%,99%,93%,24%,100%
"CCC(OC(=O)[C@H](C)NC(=O)c1nccc(OC)c1OCOC(C)=O)c1ccc(C2CCCCC2)cc1 (single isomer, unassigned) [Compound 134]",0%,0%,0%,74%,64%,33%,97%
"CCC(OC(=O)[C@H](C)NC(=O)c1nccc(OC)c1OCOC(C)=O)c1ccc(C2CCCCC2)cc1 (single isomer, unassigned) [Compound 135]",0%,86%,0%,98%,81%,29%,100%
"COc1ccnc(C(=O)N[C@@H](C)C(=O)OC(C)c2ccc(C3CCCCC3)cc2)c1OCOC(=O)C(C)C (single isomer, unassigned) [Compound 144]",0%,0%,0%,86%,93%,35%,77%
"COc1ccnc(C(=O)N[C@@H](C)C(=O)OC(C)c2ccc(C3CCCCC3)cc2)c1OCOC(=O)C(C)C (single isomer, unassigned) [Compound 145]",0%,0%,0%,99%,94%,22%,100%
"COc1ccnc(C(=O)N[C@@H](C)C(=O)OC(C)c2ccc(C3CCCCC3)cc2)c1OCOC(C)=O (single isomer, unassigned) [Compound 146]",0%,60%,0%,91%,91%,31%,73%
"COc1ccnc(C(=O)N[C@@H](C)C(=O)OC(C)c2ccc(C3CCCCC3)cc2)c1OCOC(C)=O (single isomer, unassigned) [Compound 147]",71%,94%,0%,99%,95%,38%,100%
"CCC(OC(=O)[C@H](C)NC(=O)c1nccc(OC)c1O)C1CCCCC1 (single isomer, unassigned) [Compound 167]",0%,0%,0%,100%,90%,41%,100%
